Experimental data: patent US7683064B2, “Inhibitors of Bruton's tyrosine kinase” (Roche Palo Alto LLC, priority 2008, dated 2010)

Each compound was assayed against T1, Btk enzyme (His-tagged, full-length) (Homo sapiens, UniProt Q06187) (assay: Bruton's Tyrosine Kinase (Btk) inhibition assay, 33P filtration capture). Conditions: 100 μM ATP, 30 μM biotinylated SH2 peptide substrate, 5-10 nM Btk, 30 min at 30° C.
T1 construct: 5-10 nM Btk enzyme (His-tagged, full-length); His tag
Assay type: biochemical
Text: The assay is a capture of radioactive ^33P phosphorylated product through filtration. The interactions of Btk, biotinylated SH2 peptide substrate (Src homology), and ATP lead to phosphorylation of the peptide substrate. Biotinylated product is bound streptavidin sepharose beads. All bound, radiolabeled products are detected by scintillation counter.
Plates assayed are 96-well polypropylene (Greiner) and 96-well 1.2 μm hydrophilic PVDF filter plates (Millipore). Concentrations reported here are final assay concentrations: 10-100 μM compounds in DMSO (Burdick and Jackson), 5-10 nM Btk enzyme (His-tagged, full-length), 30 μM peptide substrate (Biotin-Aca-[…]-NH2), 100 μM ATP (Sigma), 8 mM imidazole (Sigma, pH 7.2), 8 mM glycerol-2-phosphate (Sigma), 200 μM EGTA (Roche Diagnostics), 1 mM MnCl2 (Sigma), 20 mM MgCl2 (Sigma), 0.1 mg/ml BSA (Sigma), 2 mM DTT (Sigma), 1 μCi ^33P ATP (Amersham), 20% streptavidin sepharose beads (Amersham), 50 mM EDTA (Gibco), 2 M NaCl (Gibco), 2 M NaCl w/1% phosphoric acid (Gibco), microscint-20 (Perkin Elmer).
IC50 determinations are calculated from 10 data points per compound utilizing data produced from a standard 96-well plate assay template. One control compound and seven unknown inhibitors were tested on each plate and each plate was run twice. Typically, compounds were diluted in half-log starting at 100 μM and ending at 3 nM. The control compound was staurosporine. Background was counted in the absence of peptide substrate. Total activity was determined in the presence of peptide substrate. The following protocol was used to determine Btk inhibition.
1) Sample preparation: The test compounds were diluted at half-log increments in assay buffer (imidazole, glycerol-2-phosphate, EGTA, MnCl2, MgCl2, BSA).
• a.) rinse beads by centrifuging at 500 g • b.) reconstitute the beads with PBS and EDTA to produce a 20% bead slurry 3) Pre-incubate reaction mix without substrate (assay buffer, DTT, ATP, ^33P ATP) and mix with substrate (assay buffer, DTT, ATP, ^33P ATP, peptide substrate) 30° C. for 15 min. 4) To start assay, pre-incubate 10 μL Btk in enzyme buffer (imidazole, glycerol-2-phos-phate, BSA) and 10 μL of test compounds for 10 min at RT. 5) Add 30 μL reaction mixture without or with substrate to Btk and compounds. 6) Incubate 50 μL total assay mix for 30 min at 30° C. 7) Transfer 40 μL of assay to 150 μL bead slurry in filter plate to stop reaction. 8) Wash filter plate after 30 min, with following steps • a. 3×250 μL NaCl • b. 3×250 μL NaCl containing 1% phosphoric acid • c.

T1 sequence (Q06187 whole entry): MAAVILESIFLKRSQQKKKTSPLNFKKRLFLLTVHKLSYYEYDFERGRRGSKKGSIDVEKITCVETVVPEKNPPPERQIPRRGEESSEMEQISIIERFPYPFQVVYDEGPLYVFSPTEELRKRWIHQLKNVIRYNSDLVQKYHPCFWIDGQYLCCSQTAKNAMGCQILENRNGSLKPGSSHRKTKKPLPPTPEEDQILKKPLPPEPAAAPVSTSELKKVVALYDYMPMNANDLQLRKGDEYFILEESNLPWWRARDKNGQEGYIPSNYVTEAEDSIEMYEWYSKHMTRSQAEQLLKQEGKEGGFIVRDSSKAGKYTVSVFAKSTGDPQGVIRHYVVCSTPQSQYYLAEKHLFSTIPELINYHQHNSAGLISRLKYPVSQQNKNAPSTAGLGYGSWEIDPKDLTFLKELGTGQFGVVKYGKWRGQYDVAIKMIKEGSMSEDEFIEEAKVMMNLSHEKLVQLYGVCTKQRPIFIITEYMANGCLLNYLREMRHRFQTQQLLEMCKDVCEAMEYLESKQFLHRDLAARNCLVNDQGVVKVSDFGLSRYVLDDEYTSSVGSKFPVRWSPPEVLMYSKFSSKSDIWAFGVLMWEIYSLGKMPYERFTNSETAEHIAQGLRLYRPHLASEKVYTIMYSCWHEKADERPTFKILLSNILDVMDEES

| Compound | IC50 [nM] |
| --- | --- |
| CN(C)c1ccc2c(c1)CCN(c1cccc(-c3cc(Nc4ccc(C(=O)N5CCOCC5)cn4)c(=O)n(C)c3)c1CO)C2=O [Example I-2, 6-Dimethylamino-2-(2-hydroxymethyl-3-{1-methyl-5-[5-(morpholine-4-carbonyl)-pyridin-2-ylamino]-6-oxo-1,6-dihydro-pyridin-3-yl}-phenyl)-3,4-dihydro-2H-isoquinolin-1-one] | 40 |
| Cc1c(-c2cc(Nc3ccc(C(=O)N4CCOCC4)cn3)c(=O)n(C)c2)cccc1-c1c[nH]c2cc(N(C)C)ccc2c1=O [II-2, 7-Dimethylamino-3-(2-methyl-3-{1-methyl-5-[5-(morpholine-4-carbonyl)-pyridin-2-ylamino]-6-oxo-1,6-dihydro-pyridin-3-yl}-phenyl)-1H-quinolin-4-one] | 370 |

Continued, values first:

| IC50 [nM] | Compound |
| --- | --- |
| 2760 | Cc1c(-c2cc(Nc3ccc(C(=O)N4CCOCC4)cn3)c(=O)n(C)c2)cccc1-n1ccc2cc(N(C)C)ccc2c1=O [III-2, 6-Dimethylamino-2-(2-methyl-3-{1-methyl-5-[5-(morpholine-4-carbonyl)-pyridin-2-ylamino]-6-oxo-1,6-dihydro-pyridin-3-yl}-phenyl)-2H-isoquinolin-1-one] |
| 1080 | CN(C)c1ccc2c(=O)n(-c3cccc(-c4cc(Nc5ccc(C(=O)N6CCOCC6)cn5)c(=O)n(C)c4)c3)ccc2c1 [III-1, 6-Dimethylamino-2-(3-{1-methyl-5-[5-(morpholine-4-carbonyl)-pyridin-2-ylamino]-6-oxo-1,6-dihydro-pyridin-3-yl}-phenyl)-2H-isoquinolin-1-one] |
| 420 | CN(C)c1ccc2c(c1)CCN(c1cccc(-c3cc(Nc4ccc(C(=O)N5CCOCC5)cn4)c(=O)n(C)c3)c1)C2=O [Example I-1, 6-Dimethylamino-2-(3-{1-methyl-5-[5-(morpholine-4-carbonyl)-pyridin-2-ylamino]-6-oxo-1,6-dihydro-pyridin-3-yl}-phenyl)-3,4-dihydro-2H-isoquinolin-1-one] |
